Experimental data as given in PMC8190080, “Tanshinones induce tumor cell apoptosis via directly targeting FHIT” (Scientific Reports, 2021).

What was measured:
HCT116 cells = assay: Colony formation assay; type: cell-based, human; conditions: up to 10 µM, 14 days
Description: ENPP1 hydrolase activity detection assay
ENPP1 protein (4ng/µl) was mixed with series diluted compounds as indicated in assay buffer (50mM Tris-HCl, 2mM CaCl2, 2mM MgCl2, pH9.0) in a final DMSO concentration of 1% in a total volume of 20μL. The mixtures were incubated for 30min at 25°C, then 4µM Ap3A was added. After incubation at 25°C for 10min, ENPP1 should be inactivated at 85°C for 5min.
Then the production of ADP in the reaction system was detected by ADP-Glo reagent (V6930, Promega) according to the manufacturer’s protocol in 384-well. Luminescence was read by spark (TECAN), an integration time of 1 second per well. And the data were analyzed by […]
Fluorescent thin layer enzyme assay for ENPP1
Small molecules, when indicated at series concentrations, were mixed with 2.5µM the fluorescent substrate ApppBODIPY. Then, 10nM purified ENPP1 protein was added to the reaction system at 25°C containing 50mM Tris-HCl pH9.0, 2mM CaCl2, 2mM MgCl2. Reaction samples (0.6µL) were spotted on silica TLC plates (Merck) at 60–120s intervals. Plates were air-dried and developed in 2-propanol:NH4OH:1,4-dioxane: H2O (50:35:8:7) as reported before. Developed plates were imaged by fluorescein blot (ChemiDoc, Bio-rad).
Colony formation assay was performed as described before. Briefly, ~200/well single cells were planted into 6-well plate. […]

FHIT (H96N) = molecular target: T1, FHIT (H96N) (Homo sapiens, UniProt P49789, H96N); assay: Fluorescence polarization assay, FHIT H96N-ApppBODIPY binding inhibition; conditions: 5 µM FHIT (H96N), 1 µM ApppBODIPY
T1 construct: GST (N, cleaved yes); made in house; host or cells: E. coli BL21 (DE3)
T1 sequence (P49789 whole entry H96N): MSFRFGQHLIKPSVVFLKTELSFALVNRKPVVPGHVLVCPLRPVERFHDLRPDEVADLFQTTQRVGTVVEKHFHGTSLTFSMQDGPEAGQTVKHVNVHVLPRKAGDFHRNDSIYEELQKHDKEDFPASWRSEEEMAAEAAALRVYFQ
Description: The binding of FHIT (H96N) to fluorescein-labeled substrates ApppBODIPY was analyzed by fluorescence polarization assay in 384-well format for dose–response curve studies using spark instrument (TECAN) according to the protocol reported before. And 5 µM FHIT (H96N) protein was incubated with 1 µM fluorescein-labeled substrates in buffer A (25 mM Tris–HCl, pH 7.5, 5 mM MgCl2 and 2 mM DTT) with series diluted inhibitors as indicated. Each sample was allowed to equilibrate in the solution for 30 min. After 30 min, the steady-state fluorescence anisotropy (mP) was measured. A second reading was taken after 10 min, to ensure that the mixture was well-equilibrated and stable. Less than 5% change was observed between 30 and 40 min measurements. The IC50 value was determined by fitting the binding curves using GraphPad Prism 7.0.

FHIT = molecular target: T2, FHIT (Homo sapiens, UniProt P49789); assay: MST assay, purified Red-NHS labeled FHIT; type: binding
T2 construct: GST (N, cleaved yes); made in house; host or cells: E. coli BL21 (DE3)
T2 sequence (P49789 whole entry): as the sequence (P49789 whole entry H96N) above, with N96H counted along it
Description: The gene encoding human FHIT (P49789) was synthesized (Genscript, China) and cloned into pGEX-6P-1 such that the expressed protein would have an N-terminal glutathione S-transferase (GST)-tagged protein. The construct was transformed into expression host E.coli BL21 (DE3), and cells were grown in LB medium at 37 °C until the OD600 reached 0.6. The cells were then induced by adding 0.1 mM isopropyl-β-D-l-thiogalactopyranoside (IPTG) and grown at 18 °C overnight. Cells were harvested by centrifugation. The cell pellet was resuspended in a buffer containing 20 mM Tris (pH 7.5), 500 mM NaCl, and 2 mM DTT and lysed by sonication. After centrifugation, the clarified cell lysate was incubated with glutathione-sepharose 4B beads, and GST-tagged FHIT was eluted with the buffer consisting of 50 mM reduced glutathione. […]
Ten million 293 cells overexpressing GFP-tagged FHIT or free GFP were lysed in 0.5 mL M-PER mammalian protein extraction reagent (Thermo Fisher Scientific). […] The fluorescence signal during the thermophoresis was monitored and the change in fluorescence was analyzed by software. The Kd was calculated by fitting a standard binding curve to the series diluted ligands. And data were analyzed by GraphPad Prism 7.0.

DCPS = molecular target: T3, DCPS (Homo sapiens, UniProt Q96C86); assay: MST assay, purified DCPS; type: binding
T3 construct: 6xHis (N); made in house; host or cells: E. coli BL21(DE3)
T3 sequence (Q96C86 1-337): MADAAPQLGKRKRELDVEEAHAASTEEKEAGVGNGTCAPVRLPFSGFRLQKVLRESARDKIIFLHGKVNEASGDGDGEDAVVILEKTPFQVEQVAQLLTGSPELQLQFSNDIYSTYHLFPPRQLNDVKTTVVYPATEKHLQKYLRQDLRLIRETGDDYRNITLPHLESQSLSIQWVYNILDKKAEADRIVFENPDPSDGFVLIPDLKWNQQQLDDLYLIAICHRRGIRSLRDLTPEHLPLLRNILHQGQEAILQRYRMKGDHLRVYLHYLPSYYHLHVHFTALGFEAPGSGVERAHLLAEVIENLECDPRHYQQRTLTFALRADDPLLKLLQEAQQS

FHIT truncation TR1 = FHIT truncation TR1 (Homo sapiens, UniProt P49789); assay: Cellular MST assay, GFP tagged FHIT truncation TR1; type: binding
FHIT truncation TR1, sequence (P49789 2-109): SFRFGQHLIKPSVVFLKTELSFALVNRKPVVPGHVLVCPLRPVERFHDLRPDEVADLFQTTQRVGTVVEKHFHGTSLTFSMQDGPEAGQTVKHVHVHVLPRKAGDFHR
Description: Ten million 293 cells overexpressing GFP-tagged FHIT or free GFP were lysed in 0.5 mL M-PER mammalian protein extraction reagent (Thermo Fisher Scientific). Cell lysates were diluted in PBS buffer to a final concentration at which the fluorescent signals of the GFP proteins were suitable for the detection of the Monolith NT.115 instrument (NanoTemper Technologies). A single point screening assay was developed against GFP-FHIT protein to find potential binding molecules from compound libraries (L1021,APExBIO). For binding affinity detection, a 10µL protein sample was mixed with 10µL ligand at various concentrations as indicated. And the purified proteins were labeled by Red- NHS kit in accordance with the manufacturer’s protocol (MO-L011, NanoTemper Technologies). Then the mixture solutions were loaded into NT.115 standard coated capillaries or premium coated capillaries (NanoTemper Technologies), and the MST measurements were performed at 25 °C. The fluorescence signal during the thermophoresis was monitored and the change in fluorescence was analyzed by software. The Kd was calculated by fitting a standard binding curve to the series diluted ligands. And data were analyzed by GraphPad Prism 7.0.

IC50 (FHIT (H96N)): 2.2 ± 0.05 µM | Kd (FHIT; FHIT purified from E.coli, Red-NHS labeled, MST): 1.82 ± 0.3 µM | binding affinity of purified FHIT, times lower than cellular FHIT (FHIT; purified FHIT vs cellular GFP-FHIT): 5 | Kd (DCPS): 9.31 ± 0.4 µM | Kd (FHIT truncation TR1): 75.1 µM
Compound: Cc1c(S(=O)(=O)O)oc2c1C(=O)C(=O)c1c-2ccc2c1CCCC2(C)C [STS, Sodium tanshinone IIA sulfonate]
colony formation of HCT116 cells (HCT116 cells): no effect was detected
